Key:
[1] = tested on: Adjuvant Arthritis in Rats; experiment: Adjuvant induced arthritis in rats (chronic inflammation with joint destruction); format: in vivo, Royal Hart, Wistar strain rats; details: once daily days 0-13
From the text: Adjuvant induced experimental polyarthritis is a specific systemic disease of the rat which shares interesting similarities with rheumatoid arthritis. Specifically, the histology of the two diseases bears a remarkable resemblance as shown by C. M. Pearson et al., Am. J. Pathol. 42, 73 (1963). E. M. Glenn, Am. J. Vet. Res. 27 (116), 339 (1966) has classified adjuvant induced polyarthritis as a crippling and permanent deformity resulting from diffuse connective tissue involvement around certain susceptible joints in the rat. Zahiri et al., Can. Med. Ass. J. 101, 269 (1969) have shown that the fusiform swelling of the distal joints is associated with edema, congestion and synovitis including pannus formation, all of which precede the ultimate destruction of bone and cartilage. Furthermore, Zahiri et al. indicate that the cartilage destruction in the joint is due to an invasive pannus which originates in the marginal synovium and extends across the articular surface to erode it. […] See S. Wong et al., J. Pharm. & Exptl. Ther. 185, 127 (1973) and G. R. Bobalick et al., Agents & Actions 4, 364 (1974). In a similar manner, inhibition of the progress of arthritis in paws of rats treated with the compounds of this invention also lessens associated joint deterioration.
Groups of three Royal Hart, Wistar strain rats weighing 200±10 grams each were injected intradermally in the right hind paw with Freund's adjuvant (dried human tubercle bacilli in a mineral oil vehicle) at a dose of 2 mg./kg. of body weight. Test compounds were administered orally in a 1.5% staruh vehicle at various doses once daily on days 0 through 13 post challenge. Control rats were treated in a similar manner, but given only starch vehicle. On the 14th and 21st day post challenge the diameter of the injected paw (primary lesion) was measured by micrometer caliper. The volume of inflamed paws were estimated from these measurements and the results are expressed as percent inhibition of swelling as compared to controls. At the same time, the other inflamed sites, such as ears, paws and tail (secondary lesions) were observed and each rat was graded as to degree of inflammation and swelling present. The grading is based on a scale of 0 to 24, where 0 represents a complete absence of induced arthritic nodules and 24 represents the maximum degree of inflammation. The mean grade for each treated group is calculated and the effects of each compound are expressed as percent inhibition of the control grade. Table III records the results of these tests conducted with benzimidoylacetonitrile, m-fluorobenzimidoylacetonitrile and p-fluorobenzimidoylacetonitrile and known anti-inflammatory agents. The active compounds of the present invention suppress the progression of the arthritis and associated joint deterioration. Of particular interest is the low mortality observed with benzimidoylacetonitrile treated rats relative to either controls or rats treated with standard compounds.

[2] = tested on: Body Temperature of Pyretic Rats; experiment: Body temperature in yeast induced pyrexia; format: in vivo, Royal Hart, Wistar strain rats; details: 250 mg./kg. by gavage 17 hours after yeast; measured 19 hours post challenge
Method: The effect of benzimidoylacetonitrile on body temperature in yeast induced pyrexia was determined by the following procedure. Groups of three Royal Hart, Wistar strain rats weighing 80±5 grams were injected subcutaneously in the nape of the neck with 0.6 ml. of a 40% suspension of dried brewers yeast in distilled water. […] At 19 hours post challenge the rectal temperature of each rat was measured with an electric thermometer. Each dose response experiment was replicated one or more times.

[3] = tested on: Carrageenin Induced Edema of the Rat Paw; experiment: Carrageenin induced edema of the rat paw (acute anti-inflammatory activity); format: in vivo, Royal Hart, Wistar strain rats; details: 250 mg./kg. by gavage, 5 hours after drug (4 hours after carrageenin)
Method: In determining the acute anti-inflammatory activity of benzimidoylacetonitrile, Royal Hart, Wistar strain rats ranging in weight from 80 to 90 grams were used. The rats were fasted overnight prior to dosing but had free access to water. The compound was administered in aqueous suspension, by gavage, in a volume of 1.7 ml. per 50 grams of rat [corresponds by hydration volume used by Winter et al., Proc. Soc. […] The phlogistic agent used was carrageenin prepared as a sterile 1% suspension in 0.9% aqueous sodium chloride for routine testing. A volume of 0.05 ml. was injected through a 26 gauge needle into the planter tissue of the right hind paw. Measurements were made 5 hours after drug administration (4 hours after carrageenin challenge). Volumes of both the normal and carrageenin inflamed feet were determined. The difference between the two measurements is considered to be the increased edema due to the carrageenin administration.

Erythema in Guinea Pigs = experiment: Ultraviolet induced erythema in guinea pigs, topical application; format: in vivo, Albino guinea pigs; details: 1% in ethyl alcohol
Method: Albino guinea pigs were depilitated on their flanks, the evening before testing, with a standard mixture of barium sulfide and gum acacia. On the morning of the test at 0 hour they were restrained in a plastic container which allows exposure of 3 circular spots. They were then exposed to ultraviolet irradiation from a "Hanovia" Kromayer lamp, model 10, for 60 seconds. Immediately after exposure to ultraviolet light, the guinea pigs were treated by dissolving the test compound in ethyl alcohol at various concentrations and swabbing the UV exposed areas with the aid of a cottom tipped applicator stick. At one and four hours, the degree of erythema for each of the three sites was assessed according to the following scoring system: 0=no erythema, 0.5=incomplete circle or faint erythema and 1.0=complete circle of distinct erythema. Thus, the maximum score for each animal was 3.0.

SMILES	% Inhibition of Control Grade (secondary lesion), Day 14 ([1]; 50 mg./kg. oral) [%]	% Inhibition of Control Grade (secondary lesion), Day 21 ([1]; 50 mg./kg. oral) [%]	% Inhibition of Swelling (primary lesion), Day 14 ([1]; 50 mg./kg. oral) [%]	% Inhibition of Swelling (primary lesion), Day 21 ([1]; 50 mg./kg. oral) [%]	Dead/Treated At 21 Days ([1]; 50 mg./kg. oral)	Mean Weight Gain, Day 14 ([1]; 50 mg./kg. oral) [grams]	Mean Weight Gain, Day 21 ([1]; 50 mg./kg. oral) [grams]	% Inhibition of Control Grade (secondary lesion), Day 14 ([1]; 100 mg./kg. oral) [%]	% Inhibition of Control Grade (secondary lesion), Day 21 ([1]; 100 mg./kg. oral) [%]	% Inhibition of Swelling (primary lesion), Day 14 ([1]; 100 mg./kg. oral) [%]	% Inhibition of Swelling (primary lesion), Day 21 ([1]; 100 mg./kg. oral) [%]	Dead/Treated At 21 Days ([1]; 100 mg./kg. oral)	Mean Weight Gain, Day 14 ([1]; 100 mg./kg. oral) [grams]	Mean Weight Gain, Day 21 ([1]; 100 mg./kg. oral) [grams]	also measured
N#CCC(=N)c1ccc(F)cc1 [p-Fluorobenzimidoylacetonitrile, p-fluorobenzimidoylacetonitrile]	27	8	43	25	4/36	66	57	49	22	53	29	1/18	78	67	% Inhibition of Control Grade (secondary lesion), Day 14 ([1]; 25 mg./kg. oral): 14%; % Inhibition of Control Grade (secondary lesion), Day 21 ([1]; 25 mg./kg. oral): 9%; % Inhibition of Swelling (primary lesion), Day 14 ([1]; 25 mg./kg. oral): 26%; % Inhibition of Swelling (primary lesion), Day 21 ([1]; 25 mg./kg. oral): 14%; Dead/Treated At 21 Days ([1]; 25 mg./kg. oral): 2/18; Mean Weight Gain, Day 14 ([1]; 25 mg./kg. oral): 53 grams; Mean Weight Gain, Day 21 ([1]; 25 mg./kg. oral): 50 grams
CC(=O)Oc1ccccc1C(=O)O [Aspirin]	12	9	23	3	2/21	56	44	19	8	36	13	18/63	48	53	Decrease In Body Temp. [2]: 1.5 °C; C/T Edema Ratio (edema of control animals/edema of treated animals) [3]: 2.8; Erythema Score (Avg.) 1 Hr. (Erythema in Guinea Pigs; 1 hour, maximum score 3.0, ethyl alcohol control 2.5): 1.9; Erythema Score (Avg.) 4 Hr. (Erythema in Guinea Pigs; 4 hours, maximum score 3.0, ethyl alcohol control 3.0): 2.8; % Inhibition of Control Grade (secondary lesion), Day 14 ([1]; 200 mg./kg. oral): 26%; % Inhibition of Control Grade (secondary lesion), Day 21 ([1]; 200 mg./kg. oral): 17%; % Inhibition of Swelling (primary lesion), Day 14 ([1]; 200 mg./kg. oral): 48%; % Inhibition of Swelling (primary lesion), Day 21 ([1]; 200 mg./kg. oral): 27%; Dead/Treated At 21 Days ([1]; 200 mg./kg. oral): 10/66; Mean Weight Gain, Day 14 ([1]; 200 mg./kg. oral): 40 grams; Mean Weight Gain, Day 21 ([1]; 200 mg./kg. oral): 44 grams; % Inhibition of Control Grade (secondary lesion), Day 14 ([1]; 400 mg./kg. oral): 58%; % Inhibition of Control Grade (secondary lesion), Day 21 ([1]; 400 mg./kg. oral): 45%; % Inhibition of Swelling (primary lesion), Day 14 ([1]; 400 mg./kg. oral): 73%; % Inhibition of Swelling (primary lesion), Day 21 ([1]; 400 mg./kg. oral): 48%; Dead/Treated At 21 Days ([1]; 400 mg./kg. oral): 19/57; Mean Weight Gain, Day 14 ([1]; 400 mg./kg. oral): 41 grams; Mean Weight Gain, Day 21 ([1]; 400 mg./kg. oral): 55 grams
